Measurements as given in paper PMC9227830, “Neuroprotective Effect of Yucca schidigera Roezl ex Ortgies Bark Phenolic Fractions, Yuccaol B and Gloriosaol A on Scopolamine-Induced Memory Deficits in Zebrafish” (Molecules, 2022).

biological target: T1, Glycine max (soybean) 15-lipoxygenase (15-LOX) (Glycine max, UniProt P08170); assay: UV spectrophotometry at […] nm, linoleic acid oxidation (modified Malterud); assay type: biochemical; details: read-out: EC50 (the source's name) (converted)
T1 construct: gene LOX1.1; commercial native soybean enzyme (Sigma-Aldrich)
T1 sequence (P08170 1-839): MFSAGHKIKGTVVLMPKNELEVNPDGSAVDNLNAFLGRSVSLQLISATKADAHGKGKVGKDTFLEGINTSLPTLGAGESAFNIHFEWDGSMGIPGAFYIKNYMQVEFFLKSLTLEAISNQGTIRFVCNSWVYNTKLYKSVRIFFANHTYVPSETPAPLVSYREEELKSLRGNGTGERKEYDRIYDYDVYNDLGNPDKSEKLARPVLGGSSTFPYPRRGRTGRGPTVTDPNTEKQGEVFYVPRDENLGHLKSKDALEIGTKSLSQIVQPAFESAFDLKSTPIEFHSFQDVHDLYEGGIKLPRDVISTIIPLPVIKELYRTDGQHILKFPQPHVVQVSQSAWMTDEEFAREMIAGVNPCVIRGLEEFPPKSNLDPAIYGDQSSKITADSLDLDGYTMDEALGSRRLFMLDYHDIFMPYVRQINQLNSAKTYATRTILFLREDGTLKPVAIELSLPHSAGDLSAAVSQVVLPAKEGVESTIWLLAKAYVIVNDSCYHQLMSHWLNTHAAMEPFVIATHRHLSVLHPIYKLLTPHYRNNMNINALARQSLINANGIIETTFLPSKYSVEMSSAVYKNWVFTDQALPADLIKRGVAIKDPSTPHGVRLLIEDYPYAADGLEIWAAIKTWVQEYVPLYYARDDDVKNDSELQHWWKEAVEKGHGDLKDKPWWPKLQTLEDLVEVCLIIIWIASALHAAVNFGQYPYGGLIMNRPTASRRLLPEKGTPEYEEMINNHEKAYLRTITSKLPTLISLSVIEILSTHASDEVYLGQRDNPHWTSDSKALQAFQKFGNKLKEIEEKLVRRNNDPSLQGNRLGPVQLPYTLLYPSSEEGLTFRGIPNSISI

Row | IC50 | SMILES
1 | 15.2 µM | COc1c(O)cc(/C=C/c2cc(O)cc3c2[C@]2(C(=O)O3)c3c(O)cc(O)cc3O[C@H]2c2ccc(O)cc2)c2c1OC(=O)[C@]21c2c(O)cc(O)cc2O[C@H]1c1ccc(O)cc1 [GloA, gloriosaol A]
2 | 19.5 µM | O=C1Oc2cc(O)cc(/C=C/c3ccc(O)cc3)c2[C@@]12c1c(O)cc(O)cc1O[C@H]2c1ccc(O)cc1 [YuB, yuccaol B]
3 | 122 µM | O=C1O[C@H]([C@@H](O)CO)C(O)=C1O [vitamin C, reference compound]
